Measurements as given in patent US9062124B2, “GIP-based mixed agonists for treatment of metabolic disorders and obesity” (priority 2008, dated 2015).

Columns and labels:
Type in all cases: cell-based
glucagon receptor = target: T1, glucagon receptor (Homo sapiens, UniProt P47871); assay: cAMP synthesis functional assay (firefly luciferase reporter in HEK293 cells), glucagon receptor; details: for EC50: Glucagon Receptor EC50, cAMP luciferase reporter assay as in Example 16; for Glucagon Receptor relative activity: relative to the standard (Std.) EC50 of the same run
T1 construct: expressed in transfected cells; host or cells: HEK293

GLP-1 receptor = target: T2, GLP-1 receptor (Homo sapiens, UniProt P43220); assay: cAMP synthesis functional assay (firefly luciferase reporter in HEK293 cells), GLP-1 receptor; details: for EC50: GLP-1 Receptor EC50, cAMP luciferase reporter assay as in Example 16; for GLP-1 Receptor relative activity: relative to the standard (Std.) EC50 of the same run
T2 construct: expressed in transfected cells; host or cells: HEK293

[1] = system: glucagon receptor, GLP-1 receptor or GIP receptor; assay: Agonist profile across receptors assigned from the cAMP reporter assay data; details: assigned from the in vitro EC50 data of Tables 1-4
GIP receptor = target: T3, GIP receptor (Homo sapiens, UniProt P48546); assay: cAMP synthesis functional assay (firefly luciferase reporter in HEK293 cells), GIP receptor; details: for EC50: GIP Receptor EC50, cAMP luciferase reporter assay as in Example 16; for GIP Receptor relative activity: relative to the standard (Std.) EC50 of the same run
T3 construct: expressed in transfected cells; host or cells: HEK293
T3 sequence (P48546 22-466): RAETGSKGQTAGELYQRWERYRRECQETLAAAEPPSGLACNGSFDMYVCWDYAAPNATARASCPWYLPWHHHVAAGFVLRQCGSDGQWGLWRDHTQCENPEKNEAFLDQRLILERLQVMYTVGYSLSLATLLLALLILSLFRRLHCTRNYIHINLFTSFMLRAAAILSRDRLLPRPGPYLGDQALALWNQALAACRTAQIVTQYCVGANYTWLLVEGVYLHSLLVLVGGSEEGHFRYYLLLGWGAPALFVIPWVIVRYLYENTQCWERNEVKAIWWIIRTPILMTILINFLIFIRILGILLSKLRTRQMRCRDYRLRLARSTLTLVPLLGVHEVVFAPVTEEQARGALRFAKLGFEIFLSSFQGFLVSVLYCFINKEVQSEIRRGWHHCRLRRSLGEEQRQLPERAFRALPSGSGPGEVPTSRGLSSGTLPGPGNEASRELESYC

T2 sequence (P43220 24-463, species assumed): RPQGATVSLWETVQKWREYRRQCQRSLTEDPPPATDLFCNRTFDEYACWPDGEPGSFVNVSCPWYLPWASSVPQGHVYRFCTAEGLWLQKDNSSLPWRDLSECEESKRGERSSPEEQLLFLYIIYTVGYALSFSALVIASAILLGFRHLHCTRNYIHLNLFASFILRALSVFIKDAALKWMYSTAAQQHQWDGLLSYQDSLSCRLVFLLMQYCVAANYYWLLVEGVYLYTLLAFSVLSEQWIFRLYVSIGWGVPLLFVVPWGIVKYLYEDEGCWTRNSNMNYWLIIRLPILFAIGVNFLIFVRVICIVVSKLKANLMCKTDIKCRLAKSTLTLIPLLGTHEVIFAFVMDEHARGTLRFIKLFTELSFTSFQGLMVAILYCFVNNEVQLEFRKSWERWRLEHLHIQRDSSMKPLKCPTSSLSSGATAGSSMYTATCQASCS
T1 sequence (P47871 26-477): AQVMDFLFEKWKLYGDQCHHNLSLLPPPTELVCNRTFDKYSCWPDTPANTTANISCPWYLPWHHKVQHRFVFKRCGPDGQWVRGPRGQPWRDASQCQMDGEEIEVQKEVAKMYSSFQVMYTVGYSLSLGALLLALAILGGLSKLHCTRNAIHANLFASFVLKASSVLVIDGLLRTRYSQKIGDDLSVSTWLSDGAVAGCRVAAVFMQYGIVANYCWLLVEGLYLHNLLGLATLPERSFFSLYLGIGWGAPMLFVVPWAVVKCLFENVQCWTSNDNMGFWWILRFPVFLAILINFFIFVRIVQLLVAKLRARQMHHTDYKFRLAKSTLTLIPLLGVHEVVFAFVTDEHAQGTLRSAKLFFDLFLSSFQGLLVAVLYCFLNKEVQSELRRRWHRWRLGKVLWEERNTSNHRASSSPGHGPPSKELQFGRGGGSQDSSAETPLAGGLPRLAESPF

Structure (SMILES) | EC50 (glucagon receptor) [nM] | Glucagon Receptor relative activity (glucagon receptor) [%] | EC50 (GLP-1 receptor) [nM] | GLP-1 Receptor relative activity (GLP-1 receptor) [%] | receptor activity profile (glucagon / GLP-1 / GIP agonism) [1] | EC50 (GIP receptor) [nM] | GIP Receptor relative activity (GIP receptor) [%]
CC[C@H](C)[C@H](NC(=O)[C@H](CO)NC(=O)[C@H](Cc1ccc(O)cc1)NC(=O)[C@H](CC(=O)O)NC(=O)[C@H](CO)NC(=O)[C@@H](NC(=O)[C@H](Cc1ccccc1)NC(=O)[C@@H](NC(=O)CNC(=O)[C@H](CCC(N)=O)NC(=O)C(C)(C)NC(=O)[C@@H](N)Cc1ccc(O)cc1)[C@@H](C)O)[C@@H](C)O)C(=O)N[C@@H](Cc1ccc(O)cc1)C(=O)N[C@@H](CC(C)C)C(=O)N[C@@H](CC(=O)O)C(=O)N[C@@H](CCCCN)C(=O)N[C@@H](CCC(N)=O)C(=O)N[C@@H](C)C(=O)N[C@@H](C)C(=O)NC(C)(C)C(=O)N[C@@H](CCC(=O)O)C(=O)N[C@@H](Cc1ccccc1)C(=O)N[C@H](C(=O)N[C@@H](CS)C(=O)N[C@@H](Cc1c[nH]c2ccccc12)C(=O)N[C@@H](CC(C)C)C(=O)N[C@@H](CC(C)C)C(=O)N[C@@H](C)C(=O)NCC(=O)NCC(=O)N1CCC[C@H]1C(=O)N[C@@H](CO)C(=O)N[C@@H](CO)C(=O)NCC(=O)N[C@@H](C)C(=O)N1CCC[C@H]1C(=O)N1CCC[C@H]1C(=O)N1CCC[C@H]1C(=O)N[C@@H](CO)C(=O)N[C@@H](CCCCN)C(N)=O)C(C)C [mt-289] | 0.0766 | 67.75 | 0.0144 | 81.25 | exhibited activity at the GIP, GLP-1, and glucagon receptors | 0.0234 | 46.58
CCCCCCCCCCCCCCCC(=O)NCCCC[C@H](NC(=O)[C@H](CO)NC(=O)[C@@H]1CCCN1C(=O)[C@@H]1CCCN1C(=O)[C@@H]1CCCN1C(=O)[C@H](C)NC(=O)CNC(=O)[C@H](CO)NC(=O)[C@H](CO)NC(=O)[C@@H]1CCCN1C(=O)CNC(=O)CNC(=O)[C@H](C)NC(=O)[C@H](CC(C)C)NC(=O)[C@H](CC(C)C)NC(=O)[C@H](Cc1c[nH]c2ccccc12)NC(=O)[C@H](CS)NC(=O)[C@@H](NC(=O)[C@H](Cc1ccccc1)NC(=O)[C@H](CCC(=O)O)NC(=O)C(C)(C)NC(=O)[C@H](C)NC(=O)[C@H](C)NC(=O)[C@H](CCC(N)=O)NC(=O)[C@H](CCCCN)NC(=O)[C@H](CC(=O)O)NC(=O)[C@H](CC(C)C)NC(=O)[C@H](Cc1ccc(O)cc1)NC(=O)[C@@H](NC(=O)[C@H](CO)NC(=O)[C@H](Cc1ccc(O)cc1)NC(=O)[C@H](CC(=O)O)NC(=O)[C@H](CO)NC(=O)[C@@H](NC(=O)[C@H](Cc1ccccc1)NC(=O)[C@@H](NC(=O)CNC(=O)[C@H](CCC(=O)O)NC(=O)C(C)(C)NC(=O)[C@@H](N)Cc1ccc(O)cc1)[C@@H](C)O)[C@@H](C)O)[C@@H](C)CC)C(C)C)C(N)=O [mt-296] | 0.421 | 11.34 | 0.0124 | 130.65 | exhibited activity at the GIP, GLP-1, and glucagon receptors |  | 211.69
CCCCCCCCCCCCCCCC(=O)NCCCC[C@H](NC(=O)[C@H](CO)NC(=O)[C@@H]1CCCN1C(=O)[C@@H]1CCCN1C(=O)[C@@H]1CCCN1C(=O)[C@H](C)NC(=O)CNC(=O)[C@H](CO)NC(=O)[C@H](CO)NC(=O)[C@@H]1CCCN1C(=O)CNC(=O)CNC(=O)[C@H](CC(N)=O)NC(=O)[C@H](CCSC)NC(=O)[C@H](CC(C)C)NC(=O)[C@H](Cc1c[nH]c2ccccc12)NC(=O)[C@H](CS)NC(=O)[C@@H](NC(=O)[C@H](Cc1ccccc1)NC(=O)[C@H](CCC(=O)O)NC(=O)C(C)(C)NC(=O)[C@H](C)NC(=O)[C@H](C)NC(=O)[C@H](CCC(N)=O)NC(=O)[C@H](CCCCN)NC(=O)[C@H](CC(=O)O)NC(=O)[C@H](CC(C)C)NC(=O)[C@H](Cc1ccc(O)cc1)NC(=O)[C@@H](NC(=O)[C@H](CO)NC(=O)[C@H](Cc1ccc(O)cc1)NC(=O)[C@H](CC(=O)O)NC(=O)[C@H](CO)NC(=O)[C@@H](NC(=O)[C@H](Cc1ccccc1)NC(=O)[C@@H](NC(=O)CNC(=O)[C@H](CCC(N)=O)NC(=O)C(C)(C)NC(=O)[C@@H](N)Cc1ccc(O)cc1)[C@@H](C)O)[C@@H](C)O)[C@@H](C)CC)C(C)C)C(N)=O [mt-297] | 0.0132 | 362.12 | 0.0129 | 125.58 | exhibited activity at the GIP, GLP-1, and glucagon receptors | 0.0168 | 97.02
CCCCCCCCCCCCCC(=O)NCCCC[C@H](NC(=O)[C@H](CO)NC(=O)[C@@H]1CCCN1C(=O)[C@@H]1CCCN1C(=O)[C@@H]1CCCN1C(=O)[C@H](C)NC(=O)CNC(=O)[C@H](CO)NC(=O)[C@H](CO)NC(=O)[C@@H]1CCCN1C(=O)CNC(=O)CNC(=O)[C@H](C)NC(=O)[C@H](CC(C)C)NC(=O)[C@H](CC(C)C)NC(=O)[C@H](Cc1c[nH]c2ccccc12)NC(=O)[C@H](CS)NC(=O)[C@@H](NC(=O)[C@H](Cc1ccccc1)NC(=O)[C@H](CCC(=O)O)NC(=O)C(C)(C)NC(=O)[C@H](C)NC(=O)[C@H](C)NC(=O)[C@H](CCC(N)=O)NC(=O)[C@H](CCCCN)NC(=O)[C@H](CC(=O)O)NC(=O)[C@H](CC(C)C)NC(=O)[C@H](Cc1ccc(O)cc1)NC(=O)[C@@H](NC(=O)[C@H](CO)NC(=O)[C@H](Cc1ccc(O)cc1)NC(=O)[C@H](CC(=O)O)NC(=O)[C@H](CO)NC(=O)[C@@H](NC(=O)[C@H](Cc1ccccc1)NC(=O)[C@@H](NC(=O)CNC(=O)[C@H](CCC(=O)O)NC(=O)C(C)(C)NC(=O)[C@@H](N)Cc1ccc(O)cc1)[C@@H](C)O)[C@@H](C)O)[C@@H](C)CC)C(C)C)C(N)=O [mt-306] | 1.5 | 3.20 |  | 80.60 | exhibited activity at the GIP, GLP-1, and glucagon receptors |  | 254.69
CCCCCCCCCCCCCCCCCC(=O)NCCCC[C@H](NC(=O)[C@H](CO)NC(=O)[C@@H]1CCCN1C(=O)[C@@H]1CCCN1C(=O)[C@@H]1CCCN1C(=O)[C@H](C)NC(=O)CNC(=O)[C@H](CO)NC(=O)[C@H](CO)NC(=O)[C@@H]1CCCN1C(=O)CNC(=O)CNC(=O)[C@H](C)NC(=O)[C@H](CC(C)C)NC(=O)[C@H](CC(C)C)NC(=O)[C@H](Cc1c[nH]c2ccccc12)NC(=O)[C@H](CS)NC(=O)[C@@H](NC(=O)[C@H](Cc1ccccc1)NC(=O)[C@H](CCC(=O)O)NC(=O)C(C)(C)NC(=O)[C@H](C)NC(=O)[C@H](C)NC(=O)[C@H](CCC(N)=O)NC(=O)[C@H](CCCCN)NC(=O)[C@H](CC(=O)O)NC(=O)[C@H](CC(C)C)NC(=O)[C@H](Cc1ccc(O)cc1)NC(=O)[C@@H](NC(=O)[C@H](CO)NC(=O)[C@H](Cc1ccc(O)cc1)NC(=O)[C@H](CC(=O)O)NC(=O)[C@H](CO)NC(=O)[C@@H](NC(=O)[C@H](Cc1ccccc1)NC(=O)[C@@H](NC(=O)CNC(=O)[C@H](CCC(=O)O)NC(=O)C(C)(C)NC(=O)[C@@H](N)Cc1ccc(O)cc1)[C@@H](C)O)[C@@H](C)O)[C@@H](C)CC)C(C)C)C(N)=O [mt-307] | 0.288 | 16.61 |  | 113.29 | exhibited activity at the GIP, GLP-1, and glucagon receptors |  | 128.35
